Our source for the EC50 and IC50 values is patent US20240246964A1 (Arbutus Biopharma Corporation, priority 2021, published 2024).

One experiment has as its target human PD-L1 (Homo sapiens (Human), UniProt Q9NZQ7). The experiment can be described thus: T cell activation luciferase reporter cell culture system (T Cell Activation Assay). Format: cell-based. The following applies: luciferase reporter assay; PD-L1 aAPC/CHO-K1 cells with PD-1 effector Jurkat T cells. In general terms: In a reporter assay the amount or activity of a reporter protein is the signal.

Experiment [1] deals with PD-L1 His protein / PD-1 Fc protein (Homo sapiens (Human), UniProt Q9NZQ7). As to the kind of experiment: HTRF Assay (PD-1/PD-L1 interaction). Format: binding. The following applies: PD-L1 His 6 nM, PD-1 Fc 6 nM. A general note: TR-FRET usually uses a lanthanide donor and a delayed reading to cut background.
Sequence of PD-L1 His protein / PD-1 Fc protein (Q9NZQ7 19-238): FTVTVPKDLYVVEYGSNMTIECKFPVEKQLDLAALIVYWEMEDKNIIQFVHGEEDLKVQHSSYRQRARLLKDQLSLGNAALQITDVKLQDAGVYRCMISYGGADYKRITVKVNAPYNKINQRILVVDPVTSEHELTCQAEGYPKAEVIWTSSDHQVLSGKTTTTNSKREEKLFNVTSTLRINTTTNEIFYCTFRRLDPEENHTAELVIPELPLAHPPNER

Sequence of human PD-L1 (Q9NZQ7 19-290): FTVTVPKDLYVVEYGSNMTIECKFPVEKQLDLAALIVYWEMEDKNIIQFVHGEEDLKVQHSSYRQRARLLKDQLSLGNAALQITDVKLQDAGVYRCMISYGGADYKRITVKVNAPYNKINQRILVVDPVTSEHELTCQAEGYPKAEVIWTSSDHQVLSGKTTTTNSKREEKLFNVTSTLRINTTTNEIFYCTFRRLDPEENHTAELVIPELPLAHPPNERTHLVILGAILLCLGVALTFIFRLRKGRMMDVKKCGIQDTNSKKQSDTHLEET

Usually EC50 stands for the concentration needed to bring the measured effect to its halfway point. Higher therefore signals lower potency in that assay. Broadly, the IC50 is the concentration at which inhibition is half-maximal. A high value points to weaker potency. With `COc1cc(-c2nccc(-c3cccc(-c4ccc5c(CNC6CCOCC6)cn(C)c5n4)c3Cl)c2Cl)ccc1CNCCO` [Compound 606, 2-((4-(3-Chloro-4-(2-chloro-3-(1-methyl-3-(((tetrahydro-2H-pyran-4-yl)amino)methyl)-1H-pyrrolo[2,3-b]pyridin-6-yl)phenyl)pyridin-2-yl)-2-methoxybenzyl)amino)ethan-1-ol], at human PD-L1, the midpoint of the response, the EC50, lay at 237 nM. The molecule also yielded a 50% inhibitory concentration (IC50) in experiment [1] of 0.12 nM.

In turn, `COc1nc(-c2cccc(-c3ccnc(-c4cc(OC)c5nc(CNC6CCN(C(C)=O)CC6)cn5c4)c3Cl)c2Cl)ccc1CNC[C@@H]1CCC(=O)N1` [Example 318, (S)-5-((((6-(3-(2-(2-(((1-Acetylpiperidin-4-yl)amino)methyl)-8-methoxyimidazo[1,2-a]pyridin-6-yl)-3-chloropyridin-4-yl)-2-chlorophenyl)-2-methoxypyridin-3-yl)methyl)amino)methyl)pyrrolidin-2-one] had an EC50 at human PD-L1 of 31.5 nM. Also, the IC50 in experiment [1] is 1.8 nM.

`COc1cc(-c2nccc(-c3cccc(NC(=O)c4ccc(CNC[C@@H]5CCC(=O)N5)cn4)c3C)c2Cl)cc(F)c1CNC[C@@H]1CCC(=O)N1` [Example 726, N-(3-(3-Chloro-2-(3-fluoro-5-methoxy-4-(((((S)-5-oxopyrrolidin-2-yl)methyl)amino)methyl)phenyl)pyridin-4-yl)-2-methylphenyl)-5-(((((S)-5-oxopyrrolidin-2-yl)methyl)amino)methyl)picolinamide]: at human PD-L1, the concentration for a half-maximal effect (EC50) came to 48.7 nM. Further, the half-inhibitory concentration (IC50) in experiment [1] is 0.42 nM.

As to `COc1cc(-c2nccc(-c3cccc(NC(=O)c4ccc(CNCCO)cn4)c3Cl)c2Cl)ccc1CNC1CCOCC1` [Example 768, N-(2-Chloro-3-(3-chloro-2-(3-methoxy-4-(((tetrahydro-2H-pyran-4-yl)amino)methyl)phenyl)pyridin-4-yl)phenyl)-5-(((2-hydroxyethyl)amino)methyl)picolinamide], the EC50 on human PD-L1 worked out at 16.7 nM. The molecule further displayed a half-maximal inhibitory concentration (IC50) in experiment [1] of 0.1 nM.

Regarding `COc1nc(-c2cccc(-c3ccnc(-c4ccc(CNC5CCN(C(C)=O)CC5)c(OC)n4)c3Cl)c2Cl)ccc1CNC1CCN(C(C)=O)CC1` [Compound 627, 1-(4-(((6-(3-(5′-(((1-Acetylpiperidin-4-yl)amino)methyl)-3-chloro-6′-methoxy-[2,2′-bipyridin]-4-yl)-2-chlorophenyl)-2-methoxypyridin-3-yl)methyl)amino)piperidin-1-yl)ethan-1-one], on human PD-L1, it took 43.4 nM to reach a half-maximal effect (EC50). The same molecule came in with a half-inhibitory concentration (IC50) in experiment [1] of 1.96 nM.

As to `COc1nc(-c2cccc(-c3ccnc(-c4ccc5c(CN(C)CCO)nn(C)c5c4)c3Cl)c2Cl)ccc1CNC[C@@H]1CCC(=O)N1` [Example 247, (S)-5-((((6-(2-Chloro-3-(3-chloro-2-(3-(((2-hydroxyethyl)(methyl)amino)methyl)-1-methyl-1H-indazol-6-yl)pyridin-4-yl)phenyl)-2-methoxypyridin-3-yl)methyl)amino)methyl)pyrrolidin-2-one], it took 52.4 nM to reach a half-maximal effect at human PD-L1 (EC50). For the same molecule, in experiment [1], 6.74 nM corresponded to half-maximal inhibition (IC50).

At human PD-L1, `COc1cc(-c2nccc(-c3cccc(NC(=O)c4ccc(CNCCO)cn4)c3C)c2Cl)cc(F)c1CNCCO` [Example 762, N-(3-(3-chloro-2-(3-fluoro-4-(((2-hydroxyethyl)amino)methyl)-5-methoxyphenyl)pyridin-4-yl)-2-methylphenyl)-5-(((2-hydroxyethyl)amino)methyl)picolinamide] yielded an EC50 of 49.9 nM. The IC50 in experiment [1] was determined as 0.75 nM.

In the case of `COc1cc(-c2ccnc(-c3cccc(-c4ccc(CNC5CCN(C(C)=O)CC5)c(OC)n4)c3Cl)c2Cl)ccc1CNC1CCN(C(C)=O)CC1` [Compound 621, 1-(4-(((6-(3-(4-(4-(((1-Acetylpiperidin-4-yl)amino)methyl)-3-methoxyphenyl)-3-chloropyridin-2-yl)-2-chlorophenyl)-2-methoxypyridin-3-yl)methyl)amino)piperidin-1-yl)ethan-1-one], at human PD-L1, a half-maximal effect (EC50) was put at 303 nM. This molecule returned an IC50 in experiment [1] of 1.54 nM.

Take `COc1cc(-c2nccc(-c3cccc(-c4ccc(CNC5CCOCC5)c(OC)n4)c3F)c2Cl)ccc1CNC1CCOCC1` [Example 440, N-((6-(3-(3-Chloro-2-(3-methoxy-4-(((tetrahydro-2H-pyran-4-yl)amino)-methyl)phenyl)pyridin-4-yl)-2-fluorophenyl)-2-methoxypyridin-3-yl)methyl)tetrahydro-2H-pyran-4-amine]: on human PD-L1, the EC50 was 214 nM. This molecule registered an IC50 in experiment [1] of 9.97 nM.

At human PD-L1, `COc1nc(-c2cccc(-c3ccnc(-c4ccc(CNC[C@@H]5CCC(=O)N5)c(OC)n4)c3Cl)c2Cl)ccc1CNC[C@@H]1CCC(=O)N1` [Compound 630, (S)-5-((((6-(2-Chloro-3-(3-chloro-6′-methoxy-5′-(((((S)-5-oxopyrrolidin-2-yl)methyl)amino)methyl)-[2,2′-bipyridin]-4-yl)phenyl)-2-methoxypyridin-3-yl)methyl)amino)methyl)pyrrolidin-2-one] had a 50% effective concentration (EC50) of 49.6 nM. This molecule also came in with an IC50 in experiment [1] of 0.17 nM.

As to `COc1cc(-c2nccc(-c3cccc(-c4ccc(CN[C@@H]5CCC(=O)NC5)c(OC)n4)c3Cl)c2Cl)ccc1CNC1CCN(C(C)=O)CC1` [Example 541, (R)-5-(((6-(3-(2-(4-(((1-Acetylpiperidin-4-yl)amino)methyl)-3-methoxyphenyl)-3-chloropyridin-4-yl)-2-chlorophenyl)-2-methoxypyridin-3-yl)methyl)amino)piperidin-2-one], the concentration for a half-maximal effect (EC50) at human PD-L1 came to 93.4 nM. The molecule further yielded an IC50 in experiment [1] of 0.79 nM.

Molecule `COc1nc(-c2ccnc(-c3cccc4c3CC[C@@H]4Oc3nc(OC)c(CNC[C@@H](C)O)cc3C(F)(F)F)c2Cl)ccc1CNC[C@@H]1CCC(=O)N1` [Compound 165, (S)-5-((((3′-chloro-2′-((S)-1-((5-((( ®-2-hydroxypropyl)amino)methyl)-6-methoxy-3-(trifluoromethyl)pyridine-2-yl)oxy)-2,3-dihydro-1H-inden-4-yl)-6-methoxy-[2,4′-bipyridin]-5-yl)methyl)amino)methyl)pyridine1332ne-2-one] came in with a concentration giving a half-maximal response (EC50) on human PD-L1 of 4.15 nM. Moreover, the IC50 in experiment [1] is 0.35 nM.

Regarding `COc1cc(-c2nccc(-c3cccc(-c4ccc(CNC5CCN(C(C)=O)CC5)c(OC)n4)c3C)c2Cl)ccc1CNC1CCN(C(C)=O)CC1` [Example 399, 1-(4-(((6-(3-(2-(4-(((1-acetylpiperidin-4-yl)amino)methyl)-3-methoxyphenyl)-3-chloropyridin-4-yl)-2-methylphenyl)-2-methoxypyridin-3-yl)methyl)amino)piperidin-1-yl)ethan-1-one], the response at human PD-L1 was half-maximal at 77.7 nM (EC50). In experiment [1], this molecule registered an IC50 of 0.185 nM.

At human PD-L1, `COc1cc(-c2nccc(-c3cccc(-c4ccc(CNC5CCN(C(C)=O)CC5)c(OC)n4)c3Cl)c2Cl)ccc1CNCC(F)F` [Example 513, 1-(4-(((6-(2-Chloro-3-(3-chloro-2-(4-(((2,2-difluoroethyl)amino)methyl)-3-methoxyphenyl)pyridin-4-yl)phenyl)-2-methoxypyridin-3-yl)methyl)amino)piperidin-1-yl)ethan-1-one] registered an EC50 of 685 nM. In experiment [1], this molecule returned an IC50 of 47.1 nM.

Regarding `COc1cc(-c2nccc(-c3cccc(-c4ccc(CNC5CCOCC5)c(OC)n4)c3C#N)c2Cl)ccc1CNC1CCOCC1` [Example 652, 2-(3-Chloro-2-(3-methoxy-4-(((tetrahydro-2H-pyran-4-yl)amino)methyl)phenyl)pyridin-4-yl)-6-(6-methoxy-5-(((tetrahydro-2H-pyran-4-yl)amino)methyl)pyridin-2-yl)benzonitrile], the half-maximal effective concentration (EC50) at human PD-L1 is 227 nM. The molecule further gave an IC50 in experiment [1] of 0.07 nM.

Molecule `COC(=O)C[C@@H](CO)NCc1ccc(-c2nccc(-c3cccc(-c4ccc(CNC5CCN(C(C)=O)CC5)c(OC)n4)c3Cl)c2Cl)cc1OC` [Example 339, Methyl (S)-3-((4-(4-(3-(5-(((1-acetylpiperidin-4-yl)amino)methyl)-6-methoxypyridin-2-yl)-2-chlorophenyl)-3-chloropyridin-2-yl)-2-methoxybenzyl)amino)-4-hydroxybutanoate] came in with an EC50 at human PD-L1 of 97.6 nM. In addition, in experiment [1], the half-maximal inhibitory concentration (IC50) is 0.12 nM.

As to `COc1nc(-c2cccc(-c3ccnc(-c4ccc5c(CN(C)C)cn(C)c5c4)c3Cl)c2Cl)ccc1CNC[C@@H]1CCC(=O)N1` [Compound 33, (S)-5-((((6-(2-chloro-3-(3-chloro-2-(3-((dimethylamino)methyl)-1-methyl-1H-indol-6-yl)pyridin-4-yl)phenyl)-2-methoxypyridin-3-yl)methyl)amino)methyl)pyrrolidin-2-one], the EC50 on human PD-L1 turned out to be 224 nM. In experiment [1], the concentration for half-maximal inhibition (IC50) is 0.4 nM.

Consider `COc1nc(-c2ccnc(-c3cccc4c3CC[C@@H]4Nc3nc(OC)c(CN[C@H]4C[C@](C)(O)C4)cc3C(F)(F)F)c2Cl)ccc1CN[C@H]1C[C@](C)(O)C1` [Compound 225, (1S,3r)-3-(((3′-chloro-2′-((S)-1-((5-((((1r,3S)-3-hydroxy-3-methylcyclobutyl)amino)methyl)-6-methoxy-3-(trifluoromethyl)pyridin-2-yl)amino)-2,3-dihydro-1H-inden-4-yl)-6-methoxy-[2,4′-bipyridin]-5-yl)methyl)amino)-1-methylcyclobutan-1-ol], for which, at human PD-L1, the concentration for a half-maximal effect (EC50) was at least 10000 nM. Besides, the half-inhibitory concentration (IC50) in experiment [1] worked out at 8.2 nM.

The molecule `COc1nc(-c2cccc(-c3cncc(-c4ccc(CN5CC6(CNC(=O)C6)C5)c(OC)n4)c3Cl)c2Cl)ccc1CN1CC2(CNC(=O)C2)C1` [Compound 640, 2-((4′-Chloro-5′-(2-chloro-3-(6-methoxy-5-((7-oxo-2,6-diazaspiro[3.4]octan-2-yl)methyl)pyridin-2-yl)phenyl)-6-methoxy-[2,3′-bipyridin]-5-yl)methyl)-2,6-diazaspiro[3.4]octan-7-one] yielded an EC50 at human PD-L1 of 26.2 nM. For the same molecule, the 50% inhibitory concentration (IC50) in experiment [1] was determined as 0.22 nM.

Take `COc1cc(-c2nccc(-c3cccc(-c4ccc(CNC5CCN(C(C)=O)CC5)c(OC)n4)c3Cl)c2Cl)ccc1CN(C)C1CCN(C(C)=O)CC1` [Example 315, 1-(4-(((6-(3-(2-(4-(((1-acetylpiperidin-4-yl)(methyl)amino)methyl)-3-methoxyphenyl)-3-chloropyridin-4-yl)-2-chlorophenyl)-2-methoxypyridin-3-yl)methyl)amino)piperidin-1-yl)ethan-1-one]: on human PD-L1, the EC50 is 28.9 nM. For the same molecule, the IC50 in experiment [1] stood at 1.54 nM.
